We go through one compound from patent US10765661B2, “Method for improving feed digestibility and growth performance” (DSM IP ASSETS B.V., priority 2015, dated 2020).

Where two headings read alike, the source gives them in different places. Marks after values point to notes of the source that are not given here.

One assay relates to Ross 308 male broilers. The assay is described as follows: Growth performance of broiler chickens fed two proteolytic enzymes supplemented with vitamin C (Example 3). The assay is classed as in vivo. As to conditions: for FCR / FI / WG: NC diet, Vit. C level 300 mg/kg, alone or with the named enzyme (CIBENZA 350 mg/kg, ProAct 200 mg/kg feed).
For assay [1], the system named is Male broiler (Ross 308) chicks. The assay is classed as in vivo. As to conditions: main effect mean (factor: Yes). From the text: The proteolytic enzyme (Ronozyme®ProAct) and Vitamin C (Staye®50) were provided in powder form and a ready to use formulation by DSM Nutritional Products.
Male broiler (Ross 308) chicks were obtained from a local hatchery as day-olds and reared in cage in an environmentally controlled room. On d 0, chicks were individually weighed and 640 birds were allocated on weight basis to 80 cages (8 chicks per cage). The 8 dietary treatments (Table 1) were then randomly assigned to 10 replicate cages each. Experimental diets were fed from 0-21 and 22-35 days.
During week 1, a broiler coccidiosis vaccine (Immucox, Pacificvet, Christchurch, New Zealand) was given via drinking water to all chicks.
The birds received 20-hours of fluorescent illumination and allowed free access to the diets and water. Birds were checked at least three times daily (9.00 am, […]) and any unusual aspect of bird behaviour or condition was recorded. Sick or injured animals were weighed and removed from the study.
The experimental design is a 2×2×2 factorial arrangement of treatments, with two basal control diets (positive control and negative control), two levels of enzyme (with and without) and two levels of vitamin C (with and without).
The two control diets, positive and negative, based on wheat and soybean meal, were mixed for each phase of the study (0-21 and 22-35 d) (Table 2). The PC and NC diets were then used to develop 8 dietary treatments by adding the ProAct enzyme and Vitamin C mixtures. All the diets were fed in pellet form.
Growth performance: Feed and water were available ad libitum during the 35 days experimental period. Body weights and feed intake were recorded on days 7, 14, 21, 28 and 35. Mortality was recorded daily. Feed per gain values were corrected for the body weight of any bird that died or culled during the course of the experiment.
The data were subjected to ANOVA using the General Linear Models procedure of SAS (2004). Significant differences were considered at P<0.05. When a significant F-test was detected, means were separated using the least significant difference test.

Setting [2] is: 1-7 d, main effect mean of the 2x3 factorial (NC diet).
The mark [3] stands for this setting: 1-14 d, main effect mean of the 2x3 factorial (NC diet).

Procedure for Ross 308 male broilers: A total of 490 day old Ross 308 male broilers were randomly assigned to 7 treatments (6 experimental groups plus one control group) with 10 replicates of 7 birds per replicate. Six experimental groups with two levels of vitamin C (0 and 300 mg/kg feed) and three enzyme treatments: • no feed enzymes, • Novus CIBENZA (Bacillus licheniformis PWD-1 at levels of 350 mg/kg feed), • DSM RONOZYME® ProAct (at levels of 200 mg/kg feed), in a 2×3 factorial design plus one positive control. The diets of the positive control (PC) were based on wheat and soybean meal and were adequate in all nutrients. The other 6 experimental groups were fed with a negative control (NC) diet based also on wheat and soybean meal but containing less protein (97.5%) and digestible amino acids (95.5%) than the PC. The birds were fed starter (1-14 d) diets during the trial.
The birds were fed the starter (1-14 d) diets ad libitum and had free access to water throughout the trial. RONOZYME® NP (CT) and RONOZYME® WX at levels of 200 and 100 mg/kg feed respectively were included in each diet. […] After mixing, the feed was pelleted at 75-80° C.
All birds were reared in cages in an environmentally controlled room and received 23L:1D of lighting regime during the first week and 20L:4D afterward until the end of the trial. The temperature of the room was maintained at 32±1° C. on the day of arrival and adapted according to the age specific requirements of the chickens.
At d 4, a broiler coccidiosis vaccine (Coccivac B®, MSD, Canada) was given as a mild challenge to all birds via oral administration. Body weights and feed intake were recorded at weekly intervals. Mortality was recorded daily. The weight of the dead animals was used to adjust the feed conversion ratio (FCR) which were calculated by dividing total feed intake by weight gain of live plus weight of dead birds per cage, respectively.

For `O=C1O[C@H]([C@@H](O)CO)C(O)=C1O` [Vitamin C, L-ascorbic acid], in the assay on Ross 308 male broilers (1-7 d), the FCR is 1.141, the FI is reported as 157 g/bird and the WG is given as 137 g/bird. Further, in the assay with Ross 308 male broilers (setting [2]), the “FCR, main effect” value is 1.156; the “FI, main effect” value is reported as 161 g/bird; the “WG, main effect” value was 140 g/bird. Also, in the assay on Ross 308 male broilers (1-7 d, main effect mean of the 2x3 factorial (NC diet), listed as Vit. C), the “FCR, main effect” value is given as 1.156^A. In the assay with Ross 308 male broilers (1-14 d), the FCR is listed as 1.354^a, the FI was determined as 602 g/bird and the WG was 445 g/bird. In the assay with Ross 308 male broilers (setting [3]), the “FCR, main effect” value is listed as 1.440; the “FI, main effect” value was found to be 635 g/bird; the “WG, main effect” value is on record as 443 g/bird. The “FCR, main effect” value in the assay with Ross 308 male broilers (1-14 d, main effect mean of the 2x3 factorial (NC diet), listed as Vit. C) is 1.440^A. The “FCR, main effect” value in the assay with Ross 308 male broilers (d 1 to d 21, birds fed vitamin C vs. 1.516 without, P=0.080) worked out at 1.478. Moreover, in assay [1] (1-21 d post-hatching), the “Feed intake, main effect” value is 1437 g/bird; the “Feed/gain, main effect” value worked out at 1.43 g/g; the “Weight gain, main effect” value was 1006 g/bird. Further, in assay [1] (1-35 d post-hatching), the “Feed intake, main effect” value is on record as 3809 g/bird; the “Feed/gain, main effect” value is reported as 1.64 g/g; the “Weight gain, main effect” value came to 2349 g/bird.
